In BindingDB's records for doi:10.1021/jm00179a007 (1980):

Test: In vitro inhibitory potency was measured against phenylethanolamine N-methyl-transferase

Compound: NCc1cccc(Cl)c1 [(3-chlorophenyl)methanamine]
- IC50: 9 µM

Compound: CC(N)Cc1ccc(Cl)cc1 (configuration not stated) [para-chloroamphetamine]
- IC50: 300 µM
